From ChEMBL document CHEMBL3046449, “Selective Herbicidal Activities of Ethyl 5-(4, 6-Dimethoxypyrimidin-2-ylcarbamoylsulfamoyl)-1-methylpyrazole-4-carboxylate and Its Related Compounds” (J Pestic Sci, 1990) come the findings set out here.

A value given as a limit tells only on which side of the number the result lay.

Data set [1] in a line: Phytotoxicity against Oryza sativa (rice) assessed as growth inhibition under greenhouse at 5 g/ha measured after 18 days by preemergence activity assay. The format is organism-based. The settings on record: in vivo, read-out: GI.
The subject of data set [2] is Pontederia vaginalis. As to the kind of experiment: Herbicidal activity against Monochoria vaginalis assessed as growth inhibition in paddy condition under greenhouse at 5 g/ha measured after 18 days by preemergence activity assay. The format is functional. As to conditions: pre-emergence, 432 h, read-out: GI.
Data set [3] relates to Oryza sativa. As to the kind of experiment: Effect on Oryza sativa (rice) plant growth in transplanted Oryza sativa field assessed as number of tillers at 20 g/ha treated after 3 days transplanting. The format is organism-based. The settings on record: in vivo, other, 72 h.
Data set [4] relates to Oryza sativa. As to the kind of experiment: Effect on Oryza sativa (rice) plant growth in transplanted Oryza sativa field assessed as plant height at 30 g/ha treated after 15 days transplanting. The settings on record: in vivo, 360 h. The format is organism-based.
Data set [5] relates to Cyperus serotinus. As to the kind of experiment: Herbicidal activity against Cyperus serotinus assessed as weed control in transplanted rice field at 30 g/ha treated after 7 days transplanting. The format is functional.
In data set [6] the test system is Pontederia vaginalis. As to the kind of experiment: Herbicidal activity against Monochoria vaginalis assessed as weed control in transplanted rice field at 30 g/ha treated after 15 days transplanting. The format is functional.
Data set [7] relates to Alisma canaliculatum. The experiment in a line: Herbicidal activity against three to four-leaf stage Alisma canaliculatum assessed as growth inhibition treated 7 to 15 days after planting measured by post-emergence activity assay. The format is functional.
The subject of data set [8] is Cyperus serotinus. As to the kind of experiment: Herbicidal activity against Cyperus serotinus assessed as weed control in transplanted rice field at 30 g/ha treated after 10 days transplanting. The format is functional.
Data set [9] deals with Echinochloa crus-galli. As to the kind of experiment: Herbicidal activity against Echinochloa crus-galli (barnyard grass) assessed as weed control in transplanted rice field at 20 g/ha treated after 7 days transplanting. The format is functional.
The test system of data set [10] is Oryza sativa. The experiment in a line: Effect on Oryza sativa (rice) plant growth in transplanted Oryza sativa field assessed as plant height at 30 g/ha treated after 7 days transplanting. The format is organism-based. As to conditions: in vivo, other, 168 h.
Data set [11] has as its system Echinochloa crus-galli. As to the kind of experiment: Herbicidal activity against Echinochloa crus-galli (barnyard grass) assessed as weed control in transplanted rice field at 30 g/ha treated after 15 days transplanting. The format is functional.
Data set [12] concerns Pontederia vaginalis. As to the kind of experiment: Herbicidal activity against Monochoria vaginalis assessed as weed control in transplanted rice field at 30 g/ha treated after 7 days transplanting. The format is functional.
The subject of data set [13] is unidentified. As to the kind of experiment: Herbicidal activity against broadleaf weed assessed as weed control in transplanted rice field at 30 g/ha treated after 7 days transplanting. The format is functional.
Data set [14] concerns Cyperus serotinus. As to the kind of experiment: Herbicidal activity against Cyperus serotinus assessed as growth inhibition measured after 2 days by preemergence activity assay. The format is functional.
Data set [15] concerns Sagittaria pygmaea. As to the kind of experiment: Herbicidal activity against Sagittaria pygmaea assessed as weed control in transplanted rice field at 30 g/ha treated after 15 days transplanting. The format is functional.
The subject of data set [16] is Eleocharis kuroguwai. As to the kind of experiment: Herbicidal activity against Eleocharis kuroguwai assessed as growth inhibition treated 7 to 15 days after planting measured by post-emergence activity assay. The format is functional.
The test system of data set [17] is Sagittaria pygmaea. The experiment in a line: Herbicidal activity against Sagittaria pygmaea assessed as weed control in transplanted rice field at 30 g/ha treated after 10 days transplanting. The format is functional.
Data set [18] deals with Oryza sativa. The experiment in a line: Effect on Oryza sativa (rice) plant growth in transplanted Oryza sativa field assessed as plant height at 20 g/ha treated after 3 days transplanting. The format is organism-based. As to conditions: in vivo, other, 72 h.
Data set [19] relates to Schoenoplectiella juncoides. As to the kind of experiment: Herbicidal activity against Schoenoplectiella juncoides assessed as growth inhibition in paddy condition under greenhouse at 5 g/ha measured after 18 days by preemergence activity assay. The format is functional. The settings on record: pre-emergence, 432 h, read-out: GI.
Data set [20] deals with Schoenoplectiella juncoides. As to the kind of experiment: Herbicidal activity against Schoenoplectiella juncoides assessed as weed control in transplanted rice field at 30 g/ha treated after 15 days transplanting. The format is functional.
Data set [21] relates to Echinochloa crus-galli. As to the kind of experiment: Herbicidal activity against Echinochloa crus-galli (barnyard grass) assessed as weed control in transplanted rice field at 20 g/ha treated after 3 days transplanting. The format is functional.

For `CCOC(=O)c1cnn(C)c1S(=O)(=O)NC(=O)Nc1nc(OC)cc(OC)n1` [PYRAZOSULFURON ETHYL], the inhibition at 432 h in data set [1] was under 5%. Besides, the inhibition of growth at 5 g/ha in data set [2] and in [19] was over 90% throughout. Moreover, the Activity is recorded as 100% in data set [3]; 101% in data set [4]; 100% in [5]; 97% in data set [6]; 97% in data set [8]; 98% in data set [9]. In addition, the Activity in data set [10] is listed as 104%; in data set [11] it was 85%; in [12], 100%; in [13] it was 100%; in data set [15], 95%; in data set [17], 95%. For the same molecule, the values for the Activity in [18], in [20] and in data set [21] were 104%, 97% and 98%, respectively. Moreover, the figures for the I75 in data set [7], in [14] and in data set [16] were 1.4 gAi/ha, 0.9 gAi/ha and 7.4 gAi/ha, respectively.
